# Experimental data from PubChem BioAssay AID1963843 (Molecular Pharmacology Branch, DTP, NCI, 2024).
# Tested on: 616215-338-R-J1-PDC complex spheroid viability
# Test: Anticancer human tumor 616215-338-R-J1-PDC patient-derived colon adenocarcinoma cell line growth inhibition [POLQ]
# Details: for IC50: curve of first compound; for viability, T/C: stronger effect = lower value
# Procedure, shortened: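 PDC + HUVEC + MSC complex spheroids; POLQ inhibitors ± partner drugs; top conc. at/near clinical Cmax, else 10 microM (SN-38 1 microM), half-log dilutions; 37 degrees C, 5% CO2.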
# [1] = second compound 0.0316 µM, first compound 0.0316 µM
# [2] = second compound 0.0316 µM, first compound 0.1 µM
# [3] = second compound 0.1 µM, first compound 0.0316 µM
# [4] = second compound 0.1 µM, first compound 0.1 µM
# [5] = second compound 0.316 µM, first compound 0.0316 µM
# [6] = second compound 0.316 µM, first compound 0.1 µM
# [7] = second compound 1 µM, first compound 0.0316 µM
# [8] = second compound 1 µM, first compound 0.1 µM
# [9] = second compound 3.16 µM, first compound 0.0316 µM
# [10] = second compound 3.16 µM, first compound 0.1 µM
# [11] = second compound 10 µM, first compound 0.0316 µM
# [12] = second compound 10 µM, first compound 0.1 µM
# 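Also: spheroids exposed to compounds for one week before readout.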
# 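For viability, T/C in this document: percent viability relative to DMSO vehicle wells taken as 100%.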
smiles,measurement,setting,value
CC(=O)O[C@H]1C(=O)[C@@]2(C)[C@H]([C@H](OC(=O)c3ccccc3)[C@]3(O)C[C@H](OC(=O)[C@H](O)[C@@H](NC(=O)c4ccccc4)c4ccccc4)C(C)=C1C3(C)C)[C@]1(OC(C)=O)CO[C@@H]1C[C@@H]2O + COC1C(OC(N)=O)C(O)C(Oc2ccc3c(O)c(NC(=O)c4ccc(O)c(CC=C(C)C)c4)c(=O)oc3c2C)OC1(C)C,IC50,second compound 0.0316 µM,41.8 nM
same,IC50,second compound 0.1 µM,45.4 nM
same,IC50,second compound 0.316 µM,25.2 nM
same,IC50,second compound 1 µM,26.9 nM
same,IC50,second compound 3.16 µM,29.3 nM
same,IC50,second compound 10 µM,29.8 nM
same,"viability, T/C","second compound 0.0316 µM, first compound 0.00949 µM",76.1%
same,"viability, T/C","second compound 0.0316 µM, first compound 0.03 µM",52.6%
same,"viability, T/C","second compound 0.0316 µM, first compound 0.0949 µM",41%
same,"viability, T/C","second compound 0.0316 µM, first compound 0.3 µM",38.6%
same,"viability, T/C","second compound 0.0316 µM, first compound 0.949 µM",34.3%
same,"viability, T/C","second compound 0.0316 µM, first compound 3 µM",30.5%
same,"viability, T/C","second compound 0.1 µM, first compound 0.00949 µM",89.7%
same,"viability, T/C","second compound 0.1 µM, first compound 0.03 µM",54%
same,"viability, T/C","second compound 0.1 µM, first compound 0.0949 µM",42.5%
same,"viability, T/C","second compound 0.1 µM, first compound 0.3 µM",35.3%
same,"viability, T/C","second compound 0.1 µM, first compound 0.949 µM",37.1%
same,"viability, T/C","second compound 0.1 µM, first compound 3 µM",32.6%
same,"viability, T/C","second compound 0.316 µM, first compound 0.00949 µM",97.3%
same,"viability, T/C","second compound 0.316 µM, first compound 0.03 µM",41.5%
same,"viability, T/C","second compound 0.316 µM, first compound 0.0949 µM",40.4%
same,"viability, T/C","second compound 0.316 µM, first compound 0.3 µM",38.3%
same,"viability, T/C","second compound 0.316 µM, first compound 0.949 µM",38.5%
same,"viability, T/C","second compound 0.316 µM, first compound 3 µM",31.8%
same,"viability, T/C","second compound 1 µM, first compound 0.00949 µM",96.5%
same,"viability, T/C","second compound 1 µM, first compound 0.03 µM",44.1%
same,"viability, T/C","second compound 1 µM, first compound 0.0949 µM",37.1%
same,"viability, T/C","second compound 1 µM, first compound 0.3 µM",33.4%
same,"viability, T/C","second compound 1 µM, first compound 0.949 µM",31.4%
same,"viability, T/C","second compound 1 µM, first compound 3 µM",31.7%
same,"viability, T/C","second compound 3.16 µM, first compound 0.00949 µM",84.2%
same,"viability, T/C","second compound 3.16 µM, first compound 0.03 µM",48.2%
same,"viability, T/C","second compound 3.16 µM, first compound 0.0949 µM",40.8%
same,"viability, T/C","second compound 3.16 µM, first compound 0.3 µM",31.4%
same,"viability, T/C","second compound 3.16 µM, first compound 0.949 µM",36.1%
same,"viability, T/C","second compound 3.16 µM, first compound 3 µM",32.2%
same,"viability, T/C","second compound 10 µM, first compound 0.00949 µM",87.6%
same,"viability, T/C","second compound 10 µM, first compound 0.03 µM",48.3%
same,"viability, T/C","second compound 10 µM, first compound 0.0949 µM",42.2%
same,"viability, T/C","second compound 10 µM, first compound 0.3 µM",34.2%
same,"viability, T/C","second compound 10 µM, first compound 0.949 µM",32.7%
same,"viability, T/C","second compound 10 µM, first compound 3 µM",36.5%
CCc1cc2c(N3CCc4c(cc(Cn5ccnc5)cc4-c4cn(C)nc4C(F)(F)F)C3=O)cc(C)nc2c(OC)n1 + Cc1cccc(N(C)C(=O)C2C(O)CCN2c2nc(C)cc(C(F)(F)F)c2C#N)c1,IC50,second compound 0.0316 µM,2350 nM
same,IC50,second compound 0.1 µM,2240 nM
same,IC50,second compound 0.316 µM,4280 nM
same,IC50,second compound 1 µM,2820 nM
same,IC50,second compound 3.16 µM,> 10000 nM
same,IC50,second compound 10 µM,2760 nM
same,"viability, T/C",[1],107%
same,"viability, T/C",[2],120%
same,"viability, T/C","second compound 0.0316 µM, first compound 0.316 µM",83%
same,"viability, T/C","second compound 0.0316 µM, first compound 1 µM",60.6%
same,"viability, T/C","second compound 0.0316 µM, first compound 3.16 µM",46.4%
same,"viability, T/C","second compound 0.0316 µM, first compound 10 µM",45.7%
same,"viability, T/C",[3],108%
same,"viability, T/C",[4],104%
same,"viability, T/C","second compound 0.1 µM, first compound 0.316 µM",74.8%
same,"viability, T/C","second compound 0.1 µM, first compound 1 µM",57.4%
same,"viability, T/C","second compound 0.1 µM, first compound 3.16 µM",49.6%
same,"viability, T/C","second compound 0.1 µM, first compound 10 µM",43.2%
same,"viability, T/C",[5],99.8%
same,"viability, T/C",[6],103%
same,"viability, T/C","second compound 0.316 µM, first compound 0.316 µM",81%
same,"viability, T/C","second compound 0.316 µM, first compound 1 µM",70.8%
same,"viability, T/C","second compound 0.316 µM, first compound 3.16 µM",45.7%
same,"viability, T/C","second compound 0.316 µM, first compound 10 µM",49.1%
same,"viability, T/C",[7],105%
same,"viability, T/C",[8],102%
same,"viability, T/C","second compound 1 µM, first compound 0.316 µM",85%
same,"viability, T/C","second compound 1 µM, first compound 1 µM",66.1%
same,"viability, T/C","second compound 1 µM, first compound 3.16 µM",48%
same,"viability, T/C","second compound 1 µM, first compound 10 µM",40%
same,"viability, T/C",[9],106%
same,"viability, T/C",[10],102%
same,"viability, T/C","second compound 3.16 µM, first compound 0.316 µM",90.2%
same,"viability, T/C","second compound 3.16 µM, first compound 1 µM",58%
same,"viability, T/C","second compound 3.16 µM, first compound 3.16 µM",54.6%
same,"viability, T/C","second compound 3.16 µM, first compound 10 µM",50.8%
same,"viability, T/C",[11],106%
same,"viability, T/C",[12],92.3%
same,"viability, T/C","second compound 10 µM, first compound 0.316 µM",81.7%
same,"viability, T/C","second compound 10 µM, first compound 1 µM",61.1%
same,"viability, T/C","second compound 10 µM, first compound 3.16 µM",48%
same,"viability, T/C","second compound 10 µM, first compound 10 µM",40.4%
CC[C@@]1(O)C(=O)OCc2c1cc1n(c2=O)Cc2cc3c(CN(C)C)c(O)ccc3nc2-1 + Cc1cccc(N(C)C(=O)C2C(O)CCN2c2nc(C)cc(C(F)(F)F)c2C#N)c1,IC50,second compound 0.0316 µM,> 100 nM
same,IC50,second compound 0.1 µM,> 100 nM
same,IC50,second compound 0.316 µM,> 100 nM
same,IC50,second compound 1 µM,> 100 nM
same,IC50,second compound 3.16 µM,> 100 nM
same,IC50,second compound 10 µM,> 100 nM
same,"viability, T/C","second compound 0.0316 µM, first compound 0.000316 µM",96.5%
same,"viability, T/C","second compound 0.0316 µM, first compound 0.001 µM",100%
same,"viability, T/C","second compound 0.0316 µM, first compound 0.00316 µM",97.7%
same,"viability, T/C","second compound 0.0316 µM, first compound 0.01 µM",101%
same,"viability, T/C",[1],105%
same,"viability, T/C",[2],82.5%
same,"viability, T/C","second compound 0.1 µM, first compound 0.000316 µM",99.2%
same,"viability, T/C","second compound 0.1 µM, first compound 0.001 µM",101%
same,"viability, T/C","second compound 0.1 µM, first compound 0.00316 µM",101%
same,"viability, T/C","second compound 0.1 µM, first compound 0.01 µM",116%
same,"viability, T/C",[3],107%
same,"viability, T/C",[4],79.6%
same,"viability, T/C","second compound 0.316 µM, first compound 0.000316 µM",114%
same,"viability, T/C","second compound 0.316 µM, first compound 0.001 µM",104%
same,"viability, T/C","second compound 0.316 µM, first compound 0.00316 µM",92.3%
same,"viability, T/C","second compound 0.316 µM, first compound 0.01 µM",114%
same,"viability, T/C",[5],96.7%
same,"viability, T/C",[6],84.3%
same,"viability, T/C","second compound 1 µM, first compound 0.000316 µM",101%
same,"viability, T/C","second compound 1 µM, first compound 0.001 µM",93.5%
same,"viability, T/C","second compound 1 µM, first compound 0.00316 µM",112%
same,"viability, T/C","second compound 1 µM, first compound 0.01 µM",112%
same,"viability, T/C",[7],103%
same,"viability, T/C",[8],77.2%
same,"viability, T/C","second compound 3.16 µM, first compound 0.000316 µM",101%
same,"viability, T/C","second compound 3.16 µM, first compound 0.001 µM",94.2%
same,"viability, T/C","second compound 3.16 µM, first compound 0.00316 µM",93.2%
same,"viability, T/C","second compound 3.16 µM, first compound 0.01 µM",101%
same,"viability, T/C",[9],103%
same,"viability, T/C",[10],78.8%
same,"viability, T/C","second compound 10 µM, first compound 0.000316 µM",100%
same,"viability, T/C","second compound 10 µM, first compound 0.001 µM",98.9%
same,"viability, T/C","second compound 10 µM, first compound 0.00316 µM",95.3%
same,"viability, T/C","second compound 10 µM, first compound 0.01 µM",103%
same,"viability, T/C",[11],97.8%
same,"viability, T/C",[12],64.4%
